From patent US9980943B2, “Methods of treating muscular dystrophy” (BOARD OF REGENTS OF THE NEVADA SYSTEM OF HIGHER EDUCATION, …, priority 2013, dated 2018)

Assays:
Format in all cases: cell-based, mouse
[1] = tested on: α7 integrin (LacZ reporter in α7+/LacZ myotubes); assay: Myotube α7 integrin FDG assay (Burkin assay in myotubes, 96-well); details: for Burkin Assay in Myotubes, value relative to DMSO: SU9516 analogs, 96-well, N=3-6
[2] = tested on: β-galactosidase in CMV-LacZ C2C12 myotubes; assay: CMV-LacZ secondary screen in C2C12 myotubes (β-Gal stabilizing assay); details: for CMV-LACZ in Myotubes, signal relative to DMSO: C2C12 CMV-LacZ myotubes, fold relative to DMSO; for CMV-LACZ in Myotubes, value relative to DMSO: SU9516 analogs, C2C12 CMV-LacZ, N=2
How it was run: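 Stable CMV-LacZ C2C12 clone; six-point curve 0.5–40 μM; duplicates.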

[3] = tested on: α7 integrin (LacZ reporter in α7βgal+/− myoblasts); assay: Myoblast α7+/LacZ integrin FDG assay (Burkin assay in myoblasts, 96-well); details: 96-well; for Burkin Assay in Myoblasts, signal relative to DMSO: α7+/LacZ myoblasts; for Burkin Assay in Myoblasts, value relative to DMSO: SU9516 analogs, N=3-6
[4] = tested on: β-galactosidase in CMV-LacZ C2C12 myoblasts; assay: CMV-LacZ secondary screen in C2C12 myoblasts (β-Gal stabilizing assay); details: for CMV-LACZ in Myoblasts (β-galactosidase activity relative to DMSO): CMV-LacZ C2C12 myoblasts; for CMV-LACZ in Myoblasts, value relative to DMSO: SU9516 analogs, C2C12 CMV-LacZ, N=2
How it was run: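 C2C12 myoblasts stably carrying a linearized CMV-driven LacZ construct, clone chosen by β-gal level in the myoblast FDG assay. Compounds tested in 96-well dose-response at 0.5, 1, 5, 10, 20 and 40 μM, N=2 replicates per point, to detect β-gal stabilization.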

Compound: Cc1ccccc1-n1c(Cc2cccs2)n[nH]c1=S [MLS000568234-01]
- Burkin Assay in Myotubes, α7 integrin LacZ reporter signal relative to DMSO ([1]; 0.5 uM): 1.08
- Burkin Assay in Myotubes, α7 integrin LacZ reporter signal relative to DMSO ([1]; 1 uM): 1.167
- Burkin Assay in Myotubes, α7 integrin LacZ reporter signal relative to DMSO ([1]; 5 uM): 0.9642
- Burkin Assay in Myotubes, α7 integrin LacZ reporter signal relative to DMSO ([1]; 10 uM): 1.09
- Burkin Assay in Myotubes, α7 integrin LacZ reporter signal relative to DMSO ([1]; 20 uM): 0.8694
- Burkin Assay in Myotubes, α7 integrin LacZ reporter signal relative to DMSO ([1]; 40 uM): 0.9705
- CMV-LACZ in Myotubes, signal relative to DMSO ([2]; 0.5 uM): 1.3844
- CMV-LACZ in Myotubes, signal relative to DMSO ([2]; 1 uM): 1.2622
- CMV-LACZ in Myotubes, signal relative to DMSO ([2]; 5 uM): 1.0764
- CMV-LACZ in Myotubes, signal relative to DMSO ([2]; 10 uM): 0.9074
- CMV-LACZ in Myotubes, signal relative to DMSO ([2]; 20 uM): 0.9918
- CMV-LACZ in Myotubes, signal relative to DMSO ([2]; 40 uM): 0.9141
- Burkin Assay in Myoblasts, signal relative to DMSO ([3]; 0.5 uM): 1.094
- Burkin Assay in Myoblasts, signal relative to DMSO ([3]; 1 uM): 1.032
- Burkin Assay in Myoblasts, signal relative to DMSO ([3]; 5 uM): 1.136
- Burkin Assay in Myoblasts, signal relative to DMSO ([3]; 10 uM): 1.373
- Burkin Assay in Myoblasts, signal relative to DMSO ([3]; 20 uM): 1.106
- Burkin Assay in Myoblasts, signal relative to DMSO ([3]; 40 uM): 1.011
- CMV-LACZ in Myoblasts (β-galactosidase activity relative to DMSO) ([4]; 0.5 uM): 0.9556
- CMV-LACZ in Myoblasts (β-galactosidase activity relative to DMSO) ([4]; 1 uM): 0.9372
- CMV-LACZ in Myoblasts (β-galactosidase activity relative to DMSO) ([4]; 5 uM): 0.9043
- CMV-LACZ in Myoblasts (β-galactosidase activity relative to DMSO) ([4]; 10 uM): 0.9894
- CMV-LACZ in Myoblasts (β-galactosidase activity relative to DMSO) ([4]; 20 uM): 0.8819
- CMV-LACZ in Myoblasts (β-galactosidase activity relative to DMSO) ([4]; 40 uM): 0.7322

Compound: Cc1ccsc1-c1n[nH]c(=S)n1C1CCCCC1 [MLS000698617-01]
- Burkin Assay in Myotubes, α7 integrin LacZ reporter signal relative to DMSO ([1]; 0.5 uM): 1.197
- Burkin Assay in Myotubes, α7 integrin LacZ reporter signal relative to DMSO ([1]; 1 uM): 1.075
- Burkin Assay in Myotubes, α7 integrin LacZ reporter signal relative to DMSO ([1]; 5 uM): 1.139
- Burkin Assay in Myotubes, α7 integrin LacZ reporter signal relative to DMSO ([1]; 10 uM): 0.945
- Burkin Assay in Myotubes, α7 integrin LacZ reporter signal relative to DMSO ([1]; 20 uM): 1.092
- Burkin Assay in Myotubes, α7 integrin LacZ reporter signal relative to DMSO ([1]; 40 uM): 0.7963
- CMV-LACZ in Myotubes, signal relative to DMSO ([2]; 0.5 uM): 1.1221
- CMV-LACZ in Myotubes, signal relative to DMSO ([2]; 1 uM): 1.0842
- CMV-LACZ in Myotubes, signal relative to DMSO ([2]; 5 uM): 0.9014
- CMV-LACZ in Myotubes, signal relative to DMSO ([2]; 10 uM): 0.9614
- CMV-LACZ in Myotubes, signal relative to DMSO ([2]; 20 uM): 1.0011
- CMV-LACZ in Myotubes, signal relative to DMSO ([2]; 40 uM): 1.0111
- Burkin Assay in Myoblasts, signal relative to DMSO ([3]; 0.5 uM): 1.008
- Burkin Assay in Myoblasts, signal relative to DMSO ([3]; 1 uM): 1.003
- Burkin Assay in Myoblasts, signal relative to DMSO ([3]; 5 uM): 1.06
- Burkin Assay in Myoblasts, signal relative to DMSO ([3]; 10 uM): 0.9317
- Burkin Assay in Myoblasts, signal relative to DMSO ([3]; 20 uM): 0.8462
- Burkin Assay in Myoblasts, signal relative to DMSO ([3]; 40 uM): 0.8966
- CMV-LACZ in Myoblasts (β-galactosidase activity relative to DMSO) ([4]; 0.5 uM): 1.3409
- CMV-LACZ in Myoblasts (β-galactosidase activity relative to DMSO) ([4]; 1 uM): 0.9852
- CMV-LACZ in Myoblasts (β-galactosidase activity relative to DMSO) ([4]; 5 uM): 1.1399
- CMV-LACZ in Myoblasts (β-galactosidase activity relative to DMSO) ([4]; 10 uM): 1.0603
- CMV-LACZ in Myoblasts (β-galactosidase activity relative to DMSO) ([4]; 20 uM): 1.1670
- CMV-LACZ in Myoblasts (β-galactosidase activity relative to DMSO) ([4]; 40 uM): 1.0356

Compound: N#C/C(=C1/C(=O)Nc2ccc(Br)cc21)c1ccccn1 [MLS001013431-01]
- Burkin Assay in Myotubes, value relative to DMSO ([1]; 0.5 uM): 1.238
- Burkin Assay in Myotubes, value relative to DMSO ([1]; 1 uM): 1.0097
- Burkin Assay in Myotubes, value relative to DMSO ([1]; 5 uM): 0.8507
- Burkin Assay in Myotubes, value relative to DMSO ([1]; 10 uM): 0.8506
- Burkin Assay in Myotubes, value relative to DMSO ([1]; 20 uM): 0.7376
- Burkin Assay in Myotubes, value relative to DMSO ([1]; 40 uM): 0.7069
- CMV-LACZ in Myotubes, value relative to DMSO ([2]; 0.5 uM): 0.8638
- CMV-LACZ in Myotubes, value relative to DMSO ([2]; 1 uM): 1.1257
- CMV-LACZ in Myotubes, value relative to DMSO ([2]; 5 uM): 0.9388
- CMV-LACZ in Myotubes, value relative to DMSO ([2]; 10 uM): 0.9162
- CMV-LACZ in Myotubes, value relative to DMSO ([2]; 20 uM): 1.0682
- CMV-LACZ in Myotubes, value relative to DMSO ([2]; 40 uM): 1.2059
- Burkin Assay in Myoblasts, value relative to DMSO ([3]; 0.5 uM): 1.202
- Burkin Assay in Myoblasts, value relative to DMSO ([3]; 1 uM): 1
- Burkin Assay in Myoblasts, value relative to DMSO ([3]; 5 uM): 0.7077
- Burkin Assay in Myoblasts, value relative to DMSO ([3]; 10 uM): 0.5311
- Burkin Assay in Myoblasts, value relative to DMSO ([3]; 20 uM): 0.4522
- Burkin Assay in Myoblasts, value relative to DMSO ([3]; 40 uM): 0.3362
- CMV-LACZ in Myoblasts, value relative to DMSO ([4]; 0.5 uM): 0.9906
- CMV-LACZ in Myoblasts, value relative to DMSO ([4]; 1 uM): 1.0640
- CMV-LACZ in Myoblasts, value relative to DMSO ([4]; 5 uM): 0.8366
- CMV-LACZ in Myoblasts, value relative to DMSO ([4]; 10 uM): 0.6673
- CMV-LACZ in Myoblasts, value relative to DMSO ([4]; 20 uM): 0.5904
- CMV-LACZ in Myoblasts, value relative to DMSO ([4]; 40 uM): 0.6670
